Tests used:
[1] = target: T1, Pin1 WW domain (Pin1–HRP) (Homo sapiens, UniProt Q13526); test: ELEBA competitive binding Kd-obs determination; conditions: for Kd: competitive with plate-linked L1, concentration at which % Pin1-HRP bound to the plate is 50%, purified resynthesized ligands, 200 pM Pin1–HRP
T1 construct: purchased R&D Systems
Experimental: Concentration-dependent ELEBAs were performed for ligands 1{2, d}, 1{18, l}, cis-1{2, n}, and trans-1{2, n} obtained by large-scale manual solid-phase synthesis and purification. The cis- and trans-isomers of 1{2, d} were separated by HPLC. The two diastereomers (∼ 1:1) of 1{18, l} were used as a mixture because they were inseparable in our systems. Competitive dissociation constants (Kd-obs) were measured by ELEBA (Figure 4). Kd-obs values were normalized to percentage Pin1–HRP bound to the plate-linked ligand by setting the lowest concentration of competitive ligand in solution to 100% binding.[32]Kd-obs is defined as the concentration of a ligand where the % Pin1-HRP bound to the plate is 50%.
(§1) The Pin1 WW domain ligand, Fmoc–VPRpTPVGGGK–NH2, (100 μL/well, 245 μM stock solution) was covalently attached to a 96-well plate through the ε-amino group of the Lys side chain at pH 11.0, as published.[44] Ligands were dissolved in DMSO at stock concentrations of ca. 50 mM by weight. Competitive binding with plate-linked Fmoc–VPRpTPVGGGK–NH2L1 of pSer–Pro dipeptides was measured at ca. 600 μM for primary screening. In the primary assays, all library members were screened with the crude products. 1{1-21, d} were measured as mixtures of cis- and trans-isomers. Library members synthesized from racemic reagents, such as 1{1-21, c}, 1{1-21, l}, 1{1-21, q}, 1{3, a-q} and 1{8, a-q} were measured as diastereomeric mixtures. The library members were dissolved in DMSO as stock solutions with a concentration of about 37 mM based on estimated yields. The DMSO stock solution of each compound (4 μL) was added into a solution of recombinant Pin1–HRP (R&D Systems) in a PBS buffer with 2% BSA (pH = 7.3). DMSO (4 μL) was used as a negative control. The final volume of the solution was 250 μL, the final concentration of Pin1–HRP was 200 pM, and the estimated final compound concentration was 590 μM. The resulting solution was preincubated for 30 min at ambient temperature, and was added into two wells (100 μL each, for assay in duplicate) of the ligand-linked plate. The solutions were incubated for another 1 h. The solutions were removed by inverting and shaking the plate, and the plate was washed with buffer ([…], and 0.05% Tween 20 in PBS at pH 7.3) three times. A 1:1 solution of hydrogen peroxide and 3,3,5,5′-tetramethylbenzidine (100 μL) was added into each plate well, and incubated in the dark for 20 min. A 2N H2SO4 solution (50 μL) was added to each well to quench the reaction, and the absorbance of was determined at 450 nm. The percentage of Pin1–HRP bound to the plate (% binding) was calculated by eq 1. To calculate the absorbance of a plate well in eq 1, the blank ligand-linked plate was predetermined at the same wavelength, and the absorbance of the blank well was subtracted from the absorbance of the same well containing the final solution. [drawing 2] 1
The competitive dissociation constants, Kd-obs, of cis-1{2, d}, trans-1{2, d}, 1{2,o}, and 1{18, m} were determined by ELEBA after the large-scale synthesis, HPLC purification, and quantification. The final concentrations of each compound were: 2.0, 10, 30, 50, 100, 200, 300, 500, 700, 1000, and 2000 μM. Ligands stock concentrations were 88 mM by weight, and the final concentrations for competitive dissociation constants (Kd) were 2000, 1000, 700, 500, 300, 200, 100, 50, 30, 10, and 5.0 μM. […]

[2] = target: T2, Pin1 WW domain (full-length 15N-Pin1) (Homo sapiens, UniProt Q13526); test: NMR 15N-1H HSQC chemical shift perturbation titration; type: binding; conditions: global two-state fit of WW domain NH CSPs; 295 K; pH 6.6; 48.6 μM Pin1; read-out: NMR CSP Kd
T2 construct: Full-length Pin1 was overexpressed and purified as described previously; made in house
T2 sequence (Q13526 whole entry, the tested form may be a part): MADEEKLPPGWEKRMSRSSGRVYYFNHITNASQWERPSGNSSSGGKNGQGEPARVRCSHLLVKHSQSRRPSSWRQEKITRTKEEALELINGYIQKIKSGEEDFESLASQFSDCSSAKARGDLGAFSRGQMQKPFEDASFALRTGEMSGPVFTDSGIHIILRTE
Text: The ELEBA was developed as a method for high-throughput screening, rather than as an absolute measure of binding affinity. […] Since L1 is linked to the plate, ELEBA is not to be taken as a direct measurement of binding affinity.[32] We undertook NMR measurements to determine the affinity and location of binding directly by NMR to distinguish between binding to the catalytic and WW domains of Pin1. Standard NMR backbone ^15N–^1H chemical shifts were mapped onto existing assignments of Pin1 by recording 2-D ^15N–^1H HSQC spectra of full-length ^15N-Pin1 at different ligand concentrations (Figures S2–S5). NH cross-peaks showing ligand-induced chemical shift perturbations (CSPs) identified residues affected by binding. The largest magnitude CSPs were localized to the WW domain.
Full-length Pin1 was overexpressed and purified as described previously.[47] The final NMR buffer conditions were 30 mM imidazole-D4, pH 6.6, with 30 mM NaCl, 0.03% NaN3, 5 mM DTT-d10, and 90%H2O/10%D2O. The ligand stock solutions included 2.4 and 24 mM for 1{18,l}; 2.4 and 16 mM for trans-1{2,d}; 2.4 and 12 mM for cis-1{2,d}; 2.4 mM and 12 mM for 1{2,n}. The stock concentrations were confirmed by standard 1-D ^1H NMR of the samples diluted in the buffer described above.
The NMR titration spectra were recorded at a nominal temperature of 295 K, on a Bruker Avance 700 MHz (16.4 T) spectrometer equipped with a cryogenically cooled TCI probe. Sequential resonance assignments for wild type Pin1 were from our prior publications.[34],[35],[46]−[48] Data processing and cross-peak analysis used Topspin 1.3 and 2.1 (Bruker Biospin, Inc.), and Sparky (T. D. Goddard and D. G. Kneller, SPARKY 3, University of California, San Francisco). The initial Pin1 concentration (apo-Pin1) was 48.6 μM. We recorded 2-D ^15N–^1H HSQC spectra per Mori et al.[51] after each addition of ligand to get NH binding isotherms (NH chemical shift perturbations as a function of the total ligand concentration). Each 2-D data set consisted of 128 FIDs (64 complex points), with 16 scans per FID and a recycle time of 1s. The ^1H^N spectral width was 15 ppm, centered at 4.703 ppm; the ^15N spectral width was 35.24 ppm, centered at 118 ppm. The binding-induced ^15N–^1H chemical shift perturbations (CSPs) were calculated by eq 3. [drawing 4] 3 [35]
The ΔδH and ΔδN terms are the amide ^1H and ^15N chemical shift differences relative to isolated Pin1. To estimate the ligand Kd values for WW domain binding, we globally fitted WW domain NH binding isotherms to the expression for the bound protein fraction in a standard two-state binding equilibrium, P + L ⇌ PL, as described in our previous Pin1 studies.[35] The monitored WW domain residues included K13, R14, M15, S16, G20, R21, A31, S32, Q33, W34, and E35. […]

[3] = target: T1, Pin1 WW domain (Pin1–HRP); test: ELEBA primary screening assay of the library; type: binding; conditions: separate plate of groups A and B (L2 control 85.0443); crude library members; DMSO = 100%; mean of N = 2
Experimental: (§2) The library was screened by the ELEBA we reported previously.[44] The crude products resulting from diethyl ether precipitation were used for the primary and secondary ELEBA without additional purification. The concentrations of the crude products were estimated based on quantitative yields; actual concentrations were thus lower, depending on yield and purity. The library products were dissolved in DMSO as stock solutions for assays. […] Recombinant human Pin1 conjugated to horseradish peroxidase (Pin1–HRP) was used in the binding assays.[44] Fmoc-VPRpTPVGGGK-NH2 L2 was used as the positive control and DMSO was used as the negative control on each plate. The percent of Pin1–HRP bound to the plate was calculated by normalizing the binding with DMSO to be 100%. In the primary assays (Figure S1), 14 of the best library members were identified: 1{2,d}, 1{18,f}, 1{20,f}, 1{10, l}, 1{13, l}, 1{18, l}, 1{20, l}, 1{10, n}, 1{18, n}, 1{19, n}, 1{2, n}, 1{20, n}, 1{14, o}, 1{3, o}. In the secondary assay, these ligands were measured again at 270 μM, and three hits, 1{2, d}, 1{18, l} and 1{2, n}, were chosen for further analysis (Figure 3).
as §1, with “2] 1 […]” for “2] 1”
The Fmoc-Ser(2- […]
cyanoethylphosphate)-OH product was cleaved from the resin with TFA. 1H NMR indicated the presence of the Fmoc group, implying that the substrate was successfully attached to the resin (data not shown). To develop the coupling methods, 2-(2-naphthyl)ethylamine and propionic acid were reacted with the pSer–Pro resin. The resulting propanoyl-pSer–Pro–(2-(2-naphthyl)ethyl)-amide (1H NMR below) was excluded from the library assays.
Figure S1 (following pages). Ligands (group A – O) were screening using ELEBA at ca. 266 µM.
Fmoc-VPRpTPVGGGK-NH2 L2 was used as positive control at 76-87 µM from stock solutions […]
of 4.3-4.8 mM. […]

[4] = target: T1, Pin1 WW domain (Pin1–HRP); test: ELEBA secondary binding assay; conditions: 270 μM; crude product; DMSO = 100%
Experimental: as §2
The best ligands from each group that blocked Pin1 WW domain binding of HRP-Pin1 bound to plate were reassayed at 270 μM to identify the best ligands through the same procedures above.

Pin1 WW domain = target: Pin1 WW domain; design: method as in PMID 10932246; conditions: read-out: affinity for the WW domain; cited from earlier work
full-length Pin1 = target: full-length Pin1; design: method as in PMID 10932246; conditions: read-out: affinity for full-length Pin1; cited from earlier work
Pin1 catalytic domain = tested on: Pin1 catalytic domain; design: method as in PMID 10932246; conditions: cited from earlier work

T1 sequence (Q13526 whole entry, the tested form may be a part): as above

Compound	Kd [1] [µM]	Kd [2] [µM]	further results
CC(C)(Oc1ccc(Cl)cc1)C(=O)NC(COP(=O)(O)O)C(=O)N1CCCC1C(=O)Nc1ccc2[nH]ncc2c1 (centres unmarked) [1{2, n}]	206 ± 3	208 ± 6	
O=C(/C=C/c1c[nH]cn1)N[C@@H](COP(=O)(O)O)C(=O)N1CCC[C@H]1C(=O)N1CCOCC1 [1{20,b}]			% of Pin1-HRP bound to plate-linked ligand [3]: 76.1089%; ELEBA secondary screen, % of baseline activity [4]: ca. 140%
O=C(C=CSc1ccccc1)NC(COP(=O)(O)O)C(=O)N1CCCC1C(=O)Nc1ccc2[nH]ncc2c1 (stereo not drawn) [trans-1{2, d}]	820 ± 6	214 ± 25	
Fmoc–VPRpTPVGGGK–NH2 [Compound L1]			Kd (Pin1 WW domain): 7.7 µM; Kd (full-length Pin1): 4.9 µM; binding to the catalytic domain (Pin1 catalytic domain): no binding
COc1ccc2c(c1)C(CC(=O)NC(COP(=O)(O)O)C(=O)N1CCCC1C(=O)NNC(=O)c1ccoc1)CC2=O (centres unmarked) [1{18, l}]	130 ± 3	105 ± 9	
O=C(C=CSc1ccccc1)NC(COP(=O)(O)O)C(=O)N1CCCC1C(=O)Nc1ccc2[nH]ncc2c1 (stereo not drawn) [cis-1{2, d}]	263 ± 6	95 ± 6	relative potency cis vs trans isomer ([1]; ELEBA Kd-obs of cis-1{2, d} vs trans-1{2, d}): about three times as potent as trans-1{2, d}

— paper PMC11542186, “Pin1 WW Domain Ligand Library Synthesized with an Easy Solid-Phase Phosphorylating Reagent” (Biochemistry, 2024)
